Measurements reported in US20260137671A1, “PDK4 as a Cell-Aging Intervention Target and Its Use in Chemotherapy and Anticancer” (Shanghai Institute of Nutrition and Health, Chinese Academy …, priority 2022, published 2026).

Columns and labels:
[1] = tested on: MDA-MB-231 breast cancer cells xenografted together with HBF1203 breast stromal cells; assay: MDA-MB-231/HBF1203 xenograft, tumor end volume after chemotherapy and/or PDK4-IN; assay type: in vivo, SCID mice; conditions: DTX 1.0 mg/kg with PDK4-IN; FIG. 73
Experimental: All experimental mouse experiments were carried out in strict accordance with the relevant regulations of the Institutional Animal Care and Use Committee (IACUC), Shanghai Institutes for Biological Sciences, Chinese Academy of Sciences. Immuno-deficient mice ICR SCID mice (body weight about 25 g) aged about 6 weeks were used for animal experiments related to the present disclosure. Stromal cells PSC27 and epithelial cells were mixed at a ratio of 1:4, and each graft contained 1.25×10^6 cells for tissue remodeling. The xenograft tumors were implanted into mice by subcutaneous transplantation, and the animals were euthanized 8 weeks after the end of the transplantation surgery. Tumor volume was calculated according to the following formula: V=(π/6)×(([…])/2)^3 (V, volume; 1, length; w, width).
For pre-clinical chemotherapeutic studies, mice received subcutaneous implantation were given standard laboratory diets. […] The time points were on the first day of the third, fifth and seventh weeks, with a total of 3 cycles of treatment, and each cycle lasted for 2 weeks. After the course of treatment, mouse […] were collected for tumor measurement and histological analysis. […] In order to cause systemic expression of SASP factors induced by chemotherapy, MIT was administered to mice through intravenous infusion according to the above steps and sequence, but the dose was reduced to 0.1 mg/kg body weight/each time (the cumulative dose of MIT received in the whole course of treatment was 0.3 mg/kg body weight) to reduce drug-related toxicity. The chemotherapy experiment ended at the end of the 8th week, and the mice were dissected immediately after sacrifice, and the xenograft tumors were collected and used for pathological system analysis.
To assess the in vivo effects of chemotherapeutic drugs and/or PDK4-IN treatment in different tumor types, the inventors subsequently generated xenografts composed of breast cancer cell line MDA-MB-231 and breast stromal cell line HBF1203 to replicate the preclinical intervention observed in prostate cancer xenografts.

HTR2B = target: T1, HTR2B (Homo sapiens, UniProt P41595); assay: Malignant phenotype of HTR2B-transduced PCa lines with HTR2B antagonist; assay type: cell-based; conditions: PCa lines PC3, DU145, M12; antagonist applied under culture conditions
T1 construct: expressed in transfected cells; host or cells: PCa cell lines (PC3, DU145, M12)
T1 sequence (P41595 whole entry): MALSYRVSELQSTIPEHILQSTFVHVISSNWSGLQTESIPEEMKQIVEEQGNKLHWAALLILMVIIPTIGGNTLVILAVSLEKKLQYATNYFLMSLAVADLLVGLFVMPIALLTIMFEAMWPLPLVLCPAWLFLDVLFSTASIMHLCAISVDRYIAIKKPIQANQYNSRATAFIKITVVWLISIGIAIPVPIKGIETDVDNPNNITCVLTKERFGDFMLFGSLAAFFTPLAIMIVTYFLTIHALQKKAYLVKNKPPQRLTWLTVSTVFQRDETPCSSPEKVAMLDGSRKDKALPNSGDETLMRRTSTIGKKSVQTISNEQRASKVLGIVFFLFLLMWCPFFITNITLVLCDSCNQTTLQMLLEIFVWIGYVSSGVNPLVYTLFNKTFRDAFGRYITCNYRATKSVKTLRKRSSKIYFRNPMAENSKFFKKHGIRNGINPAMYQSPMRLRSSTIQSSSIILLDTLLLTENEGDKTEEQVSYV
Description: FIG. 59. Left, appraisal of the proliferation capacity of PCa lines under different conditions. As the experimental group, human HTR2B was transduced into each PCa cell line, and LY 266097 was used in the culture medium as a control for drug treatment. Middle, measurement of the migration ability of PCa lines under different conditions, with cells treated similarly as described above. Right, measurement of the migration ability of PCa lines under different conditions, with cells treated similarly as described above.
(§1) After PSC27 cells were cultured in DMEM+0.5% FBS medium for 3 days, then the cell population was washed thoroughly with 1×PBS. After a simple centrifugation, the supernatant was collected as conditioned medium, stored at −80° C. or used directly. Prostate epithelial cells are subjected to in vitro experiments during continuous culture in this conditioned medium for 3 days. For chemotherapy resistance, epithelial cell lines were cultured either in low-serum DMEM (0.5% FBS) (referred to as “DMEM”) or in conditioned medium. Simultaneously, mitoxantrone (MIT) was used to treat cells for 1 to 3 days at concentrations close to the IC50 values for each cell line, followed by observation under a bright-field microscope.
More importantly, the transduction of HTR2B enhanced resistance of PCa cells to mitoxantrone (MIT). […]

PC3 = assay: MIT-based viability assay of PC3; assay type: cell-based, human; conditions: PC3, range of concentrations of MIT
Experimental: FIG. 61. Dose-response curves (non-linear regression/curve fit) plotted from MIT-based viability assays of PC3 exposed to the CM of PSC27-PDK4 cells and treated by a range of concentrations of MIT.
as §1

[2] = tested on: PC3 cells xenografted together with PSC27 cells; assay: PC3/PSC27 xenograft, tumor end volume after chemotherapy and/or PDK4-IN; assay type: in vivo, SCID mice; conditions: MIT alone, 0.2 mg/kg i.p., first day of weeks 3, 5, 7; end of 8-week regimen
Experimental: All experimental mouse experiments were carried out in strict accordance with the relevant regulations of the Institutional Animal Care and Use Committee (IACUC), Shanghai Institutes for Biological Sciences, Chinese Academy of Sciences. Immuno-deficient mice ICR SCID mice (body weight about 25 g) aged about 6 weeks were used for animal experiments related to the present disclosure. Stromal cells PSC27 and epithelial cells were mixed at a ratio of 1:4, and each graft contained 1.25×10^6 cells for tissue remodeling. The xenograft tumors were implanted into mice by subcutaneous transplantation, and the animals were euthanized 8 weeks after the end of the transplantation surgery. […] For pre-clinical chemotherapeutic studies, mice received subcutaneous implantation were given standard laboratory diets. […] The time points were on the first day of the third, fifth and seventh weeks, with a total of 3 cycles of treatment, and each cycle lasted for 2 weeks. After the course of treatment, mouse […] were collected for tumor measurement and histological analysis. […] The chemotherapy experiment ended at the end of the 8th week, and the mice were dissected immediately after sacrifice, and the xenograft tumors were collected and used for pathological system analysis. To closely mimic clinical conditions involving chemotherapeutic drugs, the inventors designed a preclinical regimen incorporating a genotoxic drug (MIT) and/or the PDK4 inhibitor (PDK4-IN) (FIG. 63).

[3] = tested on: tumor tissues of mice (PC3/PSC27 xenografts); assay: In vivo cellular senescence and SASP expression in xenograft tumors (LCM transcripts, SA-β-Gal staining); design: species or system SCID mice; conditions: histological staining, FIG. 68
Description: (§2) FIG. 66. Transcript assessment of several canonical SASP factors expressed in stromal cells isolated from tumors in SCID mice. LCM isolation, total RNA preparation and expression assays on tissues from animals with simultaneously implanted stromal cells and cancer cells. Note that the group measured as of the lowest value was used as normalization baseline per factor.
as §2, with “67.” for “66.”, “individual” for “several”, “factors (AREG), aging markers (p16/p21) and PDK4” for “factors”
FIG. 68. Representative IHC images of SA-β-Gal staining chromatograms from tissues isolated from animals subjected to placebo or drug treatments. Scale bar, 100 μm. Right, Comparative statistical analysis of SA-β-Gal staining for tissues in mice mentioned above.
Senescence-associated β-galactosidase (SA-β-Gal) staining was performed following a previously reported procedure (Debacq-Chainiaux et al., 2009). Briefly, cells in culture dishes were washed with PBS and fixed at room temperature. Cells were fixed in 2% formaldehyde and 0.2% glutaraldehyde for 3 minutes. SA-β-Gal was used for staining with freshly prepared staining solution overnight at 37° C. Images were taken on the next day and the percentage of positive cells per unit area was calculated.
For pre-clinical chemotherapeutic studies, mice received subcutaneous implantation were given standard laboratory diets. […] The time points were on the first day of the third, fifth and seventh weeks, with a total of 3 cycles of treatment, and each cycle lasted for 2 weeks. After the course of treatment, mouse […] were collected for tumor measurement and histological analysis. […]

[4] = tested on: cancer cells in tumors (PC3/PSC27 xenografts); assay: DNA damage and apoptosis in tumors by IHC (γ-H2AX, cleaved caspase 3); assay type: in vivo, SCID mice
Description: FIG. 69. Statistical evaluating values of DNA-damaged cells and apoptotic cells in analyzed tumor specimens, represented as a percentage of cells positively stained by IHC with antibodies against γ-H2AX or caspase 3 (cleaved).
FIG. 70. Representative IHC images of caspase 3 (cleaved) in tumors at the end of therapeutic regimens. Biopsies of placebo-treated animals served as negative controls for drug-treated mice. Scale bar, 100 μm.
Considering the primary in vivo expressive results with MIT and/or PDK4-IN treatment, the inventors next asked how pharmacologically targeting PDK4 could enhance the therapeutic response of tumors. To disclose the possible mechanism(s), the inventors chose to dissect tumors from animals 7 days after initiation of treatment, a timepoint right before the development of resistant colonies.

CC(=O)O[C@@]12CO[C@@H]1C[C@H](O)[C@@]1(C)C(=O)[C@H](O)C3=C(C)[C@@H](OC(=O)[C@H](O)[C@@H](NC(=O)OC(C)(C)C)c4ccccc4)C[C@@](O)([C@@H](OC(=O)c4ccccc4)[C@H]21)C3(C)C [docetaxel (DTX), docetaxel]
tumor regression by combination with PDK4-IN (non-genotoxic drug) [1]: unable to replicate the effects

COc1ccc(CC2NCCc3c2[nH]c2ccc(C)cc32)c(Cl)c1OC.Cl (stereo not shown) [LY 266097]
HTR2B-conferred gain of proliferation, migration, invasion and resistance to MIT (HTR2B): generally lost

O=C1c2c(O)ccc(O)c2C(=O)c2c(NCCNCCO)ccc(NCCNCCO)c21 [MIT, mitoxantrone]
survival curve of cancer cells under genotoxic stress (PC3): declined trend
tumor shrinkage (tumor volume reduction) [2]: 57.5%
SA-β-gal positivity in tumor tissues [3]: elevated SA-β-gal positivity
caspase 3 cleavage (IHC) ([4]; MIT administration alone): increased caspase 3 cleavage
DNA damage and apoptosis in cancer cells ([4]; tumors dissected 7 days after initiation of treatment, single agent): caused substantial DNA damage and apoptosis
